Test results published in patent publication US7705016B2, “Regulation of food intake by modulation of long-chain fatty acyl-CoA levels in the hypothalamus” (Albert Einstein College of Medicine of Yeshiva University, priority 2003, dated 2010).

How the values were obtained:
[1] = target: T1, hypothalamic CPT1 (Rattus norvegicus, UniProt P32198); test: ICV infusion with pancreatic-insulin clamp, glucose kinetics (Example 1); format: in vivo; set-up: CPT1 activity was measured in the particulate fraction of protein extracts from animals treated with ICV control injections; from tissue; host or cells: hypothalamus (arcuate nucleus) of male Sprague-Dawley rats, in vivo or ex vivo; Insulin (iU/ml): unit not given here; details: for Food Intake: measured prior to acute ICV infusion, except CPT1L-Ribo group (3 days after ICV)
T1 sequence (P32198 1-773): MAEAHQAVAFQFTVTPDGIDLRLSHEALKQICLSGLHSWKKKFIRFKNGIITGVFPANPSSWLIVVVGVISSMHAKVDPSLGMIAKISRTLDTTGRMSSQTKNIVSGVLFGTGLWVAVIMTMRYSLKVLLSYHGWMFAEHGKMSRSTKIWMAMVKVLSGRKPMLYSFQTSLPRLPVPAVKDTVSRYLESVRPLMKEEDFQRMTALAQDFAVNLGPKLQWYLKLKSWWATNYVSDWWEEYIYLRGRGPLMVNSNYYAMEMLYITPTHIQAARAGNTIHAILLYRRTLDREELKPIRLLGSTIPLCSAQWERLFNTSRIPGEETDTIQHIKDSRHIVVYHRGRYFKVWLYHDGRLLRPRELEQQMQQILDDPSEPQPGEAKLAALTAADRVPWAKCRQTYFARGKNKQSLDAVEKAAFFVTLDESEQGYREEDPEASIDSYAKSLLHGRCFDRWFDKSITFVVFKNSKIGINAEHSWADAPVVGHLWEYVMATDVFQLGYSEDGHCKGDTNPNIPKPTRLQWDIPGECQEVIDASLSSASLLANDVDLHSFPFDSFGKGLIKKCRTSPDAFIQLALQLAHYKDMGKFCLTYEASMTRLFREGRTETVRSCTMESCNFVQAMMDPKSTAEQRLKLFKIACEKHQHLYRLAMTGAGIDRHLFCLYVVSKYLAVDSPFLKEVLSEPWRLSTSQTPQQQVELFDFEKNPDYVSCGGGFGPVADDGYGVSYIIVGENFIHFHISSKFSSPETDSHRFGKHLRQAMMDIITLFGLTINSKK
Description: Hypothalamic inhibition of CPT1 inhibits glucose production. Experiments were also designed to examine the effect of central inhibition of CPT-1 on whole body insulin action (FIG. 4a,b). Insulin action was assessed by a combination of ICV infusions with systemic pancreatic-insulin clamp studies (FIG. 4b). In these studies, the daily food intake was matched in the rats receiving ICV vector and ICV CPT1L-Ribo (Table 1). All rats also received an intra-arterial infusion of [3-^3H]-glucose for the last 4 hr of ICV infusion and a pancreatic/insulin clamp (insulin 1 mU/kg.min; somatostatin 3 μg/kg/min) during the last 2 hr of the study (Obici et al., 2002a; Obici et al., 2001). As expected in the presence of ˜basal circulating insulin levels (clamp procedure; Table 1), the rate of glucose infusion (GIR) required to maintain euglycemia was marginal in ICV control studies (vector-ST1340- or vehicle-infused animals; ˜0.8 mg/kg/min). By contrast, following ICV infusion of inhibitors of CPT-1 expression or activity glucose had to be infused at the rate of ˜5 mg/kg/min in order to prevent hypoglycemia. Thus, central inhibition of CPT-1 activity in the presence of fixed and basal insulin concentrations stimulates insulin action on glucose homeostasis.
(§1) Animal preparation for in vivo experiments. We studied ninety-three 10-week old male Sprague-Dawley rats (Charles River Breeding Laboratories, Wilmington, Mass.). Rats were housed in individual cages and subjected to a standard light-dark cycle. Three weeks prior to the in vivo studies, we placed a chronic catheter in the third cerebral ventricle by stereotaxic surgery (Obici et al., 2002a; Obici et al., 2001; Liu et al., 1998). One week before the pancreatic-insulin clamp protocols, we placed additional catheters in the right internal jugular and left carotid artery (Obici et al., 2001; Liu et al., 1998). All ICV solutions were dissolved in artificial cerebral spinal fluid (aCSF). Food intake was monitored daily.
Measurements of in vivo glucose kinetics and pancreatic-insulin clamp procedure. The infusion studies lasted a total of 360 min (FIG. 3a). Briefly, at t=0 min a primed-continuous ICV infusion of either CPT1 inhibitors or control solution was initiated and maintained for the remainder of the study. 2-tetradecylglydate (TDGA, a gift from Dr. Manuel Guzman) was dissolved in DMSO, diluted into aCSF (Harvard Apparatus) and infused ICV at a rate of 50 pmoles/hr. […] Prior to the pancreatic-insulin clamp studies, rats receiving ICV injection of either CPT1L-Ribo or vector control three days prior to the clamp procedure were randomized into two pair-fed experimental groups. A primed-continuous infusion of HPLC-purified [3-^3H]-glucose (New England Nuclear, Boston, Mass.; 40 μCi bolus, 0.4 μCi/min) was started at t=120 min and continued for the duration of the study (Obici et al., 2002a; Obici et al., 2001; Liu et al., 1998). Finally, a pancreatic-insulin clamp (Obici et al., 2002a; Obici et al., 2001; Liu et al., 1998) was initiated at t=240 min and lasted for 2 hours. This procedure involved the infusion of somatostatin (3 μg/kg/min), insulin (1 mU/kg/min), and glucose as needed to prevent hypoglycemia, or antibodies against C peptide (Linco) and Melanocortin Receptor type 2 (Chemicon). The rate of insulin infusion was designed to replace normal basal levels in postabsorptive rats.
Radioactivity of [^3H]glucose in plasma was measured from supernatants of Ba(OH)2 and ZnSO4 precipitates after evaporation to dryness for the removal of tritiated water (Somogyi pellet). The specific activity of tritiated water in plasma (Somogyi filtrate) was determined from the total counts of the protein-free supernatant before and after evaporation to dryness. Under steady state conditions for plasma glucose concentration, the rate of glucose disappearance (Rd) equals the rate of glucose appearance (Ra). […]

[2] = target: T1, hypothalamic CPT1; test: Food intake after ICV bolus of CPT1 antagonists; format: in vivo; set-up: CPT1 activity was measured in the particulate fraction of protein extracts from animals treated with ICV control injections; from tissue; host or cells: hypothalamus (arcuate nucleus) of male Sprague-Dawley rats, in vivo or ex vivo; details: single ICV injection
Description: Hypothalamic inhibition of CPT1 decreases food intake. First we examined whether central administration of molecular and pharmacological antagonists of CPT1 modulates feeding behavior in conscious rats (FIG. 3). […] Food intake was monitored in metabolic cages before and up to 72 h after the ICV injections (Obici et al., 2002a). […] The marked effect of ICV CPT1L-Ribo on food intake was significant when compared with either control vector or with an unrelated control ribozyme (FIG. 3c). […] The anorectic effect of central CPT1 inhibition lasted for at least 48 h following a single ICV administration. These decreases in food intake were significant compared with both baseline and vehicle/control (FIG. 3a-e). The changes from baseline induced by CPT1 inhibition were statistically significant at 24 h (−17.6±2.0 g and −12.4±3.9 g), and 48 h (−13.4±1.8 g and −7.8±3.8 g) following ICV administration of CP1L-Ribo and high dose ST 1326, respectively (FIGS. 3b and e). This represented a ˜50% decrease in daily food intake, which returned toward baseline values by 72 h.
as §1
Effect of central inhibition of CPT1 and food intake. We examined the effects of ICV CPT1L-Ribo and ST 1326 on food intake. Three-hours before the start of the dark cycle, CPT1L-Ribo or vector control, ST 1326 or ST 1340 was injected as a bolus via indwelling catheters implanted in the third cerebral ventricle. In the feeding studies, rats received a single bolus injection of 25 pmoles of ST1340 or two different doses (5 and 25 pmoles) of ST1326. Rats were adapted to the metabolic cages and their daily food intake had been constant (changes <10%) for a minimum of three consecutive days preceding the ICV injections. Food intake was continuously monitored for the following 72 h.

[3] = tested on: KATP; test: IV lipid infusion with ICV glybenclamide or hepatic vagotomy, pancreatic clamp (Example 4); format: in vivo, rat; details: near basal insulin (~27 μU/ml), groups S+ICVG, IL+ICVC
Description: Hepatic “Autoregulation” in Response to Lipid Infusion Requires Central Stimulation of K-channels (KATP) and Liver Vagal Innervation. […] Since the administration of the LCFA oleic acid in the third cerebral ventricle (ICV) inhibits GP via stimulation of KATP, here we test the hypotheses that: 1) the central activation of KATP by LCFAs restrains GP during lipid infusions, and 2) that this effect requires hepatic vagal input. To this end, 5 h fasted S-D rats were randomized to receive: IV Intralipid+heparin (IL) (increased LCFA levels by ˜3 fold) or saline (S) in combination with ICV Glybenclamide (G) [inhibitor of KATP] or vehicle (C) for 6 h. All rats also received IV infusions of [3-^3H]-glucose for the last 4 h and [U-^14C]-lactate for the last 10 min of the ICV infusion and a pancreatic clamp during the last 2 h of each study. During the clamp period, in the presence of near basal insulin levels (˜27 μU/ml), GP (˜6 mg/kg.min) was unchanged in S+ICVC, S+ICVG or IL+ICVC. […] To examine whether the central effects of LCFA on GP are mediated by vagal stimulation, we next repeated the lipid infusion studies in rats with selective hepatic vagotomy (HV). During the pancreatic clamp period, GP (˜6 mg/kg/min) was similar in S-treated HV and S or IL treated sham-operated rats. Importantly, IL increased GP to 9.7±0.5 (P<0.001) in HV, recapitulating the effect ICVG. […]

[4] = target: T1, hypothalamic CPT1; test: ICV CPTi with or without glybenclamide or liver-selective vagotomy, pancreatic/insulin clamp (Example 4); format: in vivo; set-up: from tissue; host or cells: hypothalamus of living S-D rats; details: ICV GLY in CON-infused rats (CON-GLY); not shown
Excerpt: Decreasing Hypothalamic Lipid Oxidation Inhibits Endogenous Glucose Production (GP) via stimulation of K-channels (KATP) and Vagus Nerve. Administration either of the long-chain fatty acid (LCFA) oleic acid (OA) or of inhibitors of CPT-1 activity (CPT1) in the third cerebral ventricle (ICV) inhibits GP. Here, we hypothesize that inhibition of hypothalamic lipid oxidation with CPTi decreases GP via central activation of ATP-dependent potassium channels (KATP) leading to increased vagal input to the liver. […] All rats also received an IV infusion of [3-^3H]-glucose for the last 4 hr of ICV infusion and pancreatic/insulin clamp (insulin 1 mU/kg/min; somatostatin […]) during the last 2 hr of each study. In the presence of basal insulin levels, glucose infusion (GIR) was required to prevent hypoglycemia in the CPTi (4.9±1.0 mg/kg/min), but not in the CON (2.1±0.4 mg/kg/min) and CPTi-GLY (1.4±0.5 mg/kg/min) groups. […] To investigate whether this neural pathway acts via the hepatic branch of the vagus nerve, ICV CPTi or CON infusions were also performed in rats receiving liver-selective vagotomy (LV) or sham-operation (SH). GIR was markedly higher in CPTi-SH (4.7±1.3 mg/kg/min) compared with both CON-SH (1.3±0.4 mg/kg/min) and CPTi-LV (0.8±0.5 mg/kg/min). […]

[5] = tested on: rats; details: ICV, equimolar to oleic acid; cited from earlier work

Row | Body wt. ([1]; Basal) | FFA ([1]; Basal) | Glucose ([1]; Basal) | Insulin ([1]; Basal) | Leptin ([1]; Basal) | Food Intake ([1]; Basal) | FFA ([1]; Clamp, steady-state) | Glucose ([1]; Clamp, steady-state) | Insulin (iU/ml) ([1]; Clamp, steady-state) | rate of glucose infusion (GIR) required to maintain euglycemia ([1]; pancreatic-insulin clamp, ~basal insulin, ICV infusion) | effect on food intake / feeding behavior [2] | GP [4] | decrease in glucose production (GP) ([1]; basal and equal insulin levels (~20 μU/ml), ICV) | glucose production (GP) during pancreatic clamp vs ICV vehicle controls ([1]; ~basal insulin concentrations, p<0.01) | SMILES | GP during the clamp period [3] | suppressive effects of ICV oleic acid on food intake and on GP, with equimolar administration [5]
1 | 307 ± 6 g | 0.4 ± 0.1 mM | 8.0 ± 1.0 mM | 1.4 ± 0.2 ng/mL | 0.9 ± 0.2 ng/mL | 22 ± 3 g | 0.4 ± 0.1 mM | 8.2 ± 0.9 mM | 25 ± 4 | ~0.8 mg/kg/min | failed to modify feeding behavior | – | – | – | CCCCCCCCCCCCCCNC(=O)N[C@@H](CC(=O)[O-])C[N+](C)(C)C [ST1340, (S)-N-(tetradecylcarbamoyl)-aminocarnitine] | – | –
2 | – | – | – | – | – | – | – | – | – | – | – | did not alter | – | – | COc1ccc(Cl)cc1C(=O)NCCc1ccc(S(=O)(=O)NC(=O)NC2CCCCC2)cc1 [GLY, glybenclamide] | ~6 mg/kg.min | –
3 | – | – | – | – | – | – | – | – | – | – | – | – | – | – | CCCCCCCC(=O)O [octanoic acid] | – | not replicated
4 | 319 ± 10 g | 0.5 ± 0.1 mM | 8.2 ± 0.8 mM | 1.9 ± 0.1 ng/mL | 1.7 ± 0.1 ng/mL | 25 ± 2 g | 0.5 ± 0.1 mM | 8.1 ± 0.5 mM | 25 ± 3 | – | – | – | 47±6% | markedly inhibited GP | CCCCCCCCCCCCCCC1(C(=O)O)CO1 (stereo not shown) [TDGA, 2-tetradecylglydate] | – | –
